In patent US20240101540A1, “TARGETED PROTEIN DEGRADATION OF PARP14 FOR USE IN THERAPY” (Ribon Therapeutics, Inc., priority 2022, published 2024):
Values belong to the compound of their own block, whether it stands above or below them.

Target: T1, catalytic domain of human PARP14 (residues 1611 to 1801) with NanoLuc tag (Homo sapiens, UniProt Q460N5)
T1 construct: expressed in transfected cells; host or cells: HEK-293T cells (ATCC), pcDNA3.1(-) vector
T1 sequence (Q460N5 1611-1801): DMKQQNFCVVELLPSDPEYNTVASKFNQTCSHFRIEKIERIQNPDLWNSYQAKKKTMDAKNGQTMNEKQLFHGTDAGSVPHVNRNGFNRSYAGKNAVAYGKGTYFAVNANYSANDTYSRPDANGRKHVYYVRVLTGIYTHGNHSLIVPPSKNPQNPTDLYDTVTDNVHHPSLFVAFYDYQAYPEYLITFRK
Test: NanoLuc assay for the degradation of PARP14 (NanoLuc-tagged PARP14 overexpressed in HEK-293T cells, 2 hours)
Type: cell-based
Conditions: Assay A (Example A): NanoLuc-tagged PARP14 degradation in HEK-293T cells, read-out: DC50

DC50: < 100 nM
Structure (SMILES): O=C1CCC(Nc2ccc(NC3CCN(CCN4CCC(COc5cc(F)c6c(=O)[nH]c(CSC7CCOCC7)nc6c5)CC4)CC3)cc2)C(=O)N1 (stereo not shown) [Example 94, 3-((4-((1-(2-(4-(((5-fluoro-4-oxo-2-(((tetrahydro-2H-pyran-4-yl)thio)methyl)-3,4-dihydroquinazolin-7-yl)oxy)methyl)piperidin-1-yl)ethyl)piperidin-4-yl)amino)phenyl)amino)piperidine-2,6-dione]

DC50: < 100 nM
Structure (SMILES): O=C1CCC(Nc2ccc(N3CCC(N4CC(N5CCC(COc6cc(F)c7c(=O)[nH]c(CSC8CCOCC8)nc7c6)CC5)C4)CC3)cc2)C(=O)N1 (stereo not shown) [Example 88, 3-((4-(4-(3-(4-(((5-fluoro-4-oxo-2-(((tetrahydro-2H-pyran-4-yl)thio)methyl)-3,4-dihydroquinazolin-7-yl)oxy)methyl)piperidin-1I-yl)azetidin-1-yl)piperidin-1-yl)phenyl)amino)piperidine-2,6-dione]

DC50: < 100 nM
Structure (SMILES): O=C1CCC(N2C(=O)c3ccc(N4CCN(CCN5CCC(COc6cc(F)c7c(=O)[nH]c(CSC8CCOCC8)nc7c6)CC5)CC4)cc3C2=O)C(=O)N1 (stereo not shown) [Example 62, 2-(2,6-dioxopiperidin-3-yl)-5-(4-(2-(4-(((5-fluoro-4-oxo-2-(((tetrahydro-2H-pyran-4-yl)thio)methyl)-3,4-dihydroquinazolin-7-yl)oxy)methyl)piperidin-1-yl)ethyl)piperazin-1-yl)isoindoline-1,3-dione]

DC50: < 100 nM
Structure (SMILES): O=C1CCC(Nc2cccc(C3CCN(CCN4CCC(COc5cc(F)c6c(=O)[nH]c(CSC7CCOCC7)nc6c5)CC4)CC3)c2)C(=O)N1 (stereo not shown) [Example 67, 3-((3-(1-(2-(4-(((5-fluoro-4-oxo-2-(((tetrahydro-2H-pyran-4-yl)thio)methyl)-3,4-dihydroquinazolin-7-yl)oxy)methyl)piperidin-1-yl)ethyl)piperidin-4-yl)phenyl)amino)piperidine-2,6-dione]

DC50: < 100 nM
Structure (SMILES): O=C1CCC(N2C(=O)c3ccc(N4CCC(N5CCN(Cc6cc(F)c7c(=O)[nH]c(CSC8CCOCC8)nc7c6)CC5)CC4)cc3C2=O)C(=O)N1 (stereo not shown) [Example 85, 2-(2,6-dioxopiperidin-3-yl)-5-(4-(4-((5-fluoro-4-oxo-2-(((tetrahydro-2H-pyran-4-yl)thio)methyl)-3,4-dihydroquinazolin-7-yl)methyl)piperazin-1-yl)piperidin-1-yl)isoindoline-1,3-dione]

DC50: < 100 nM
Structure (SMILES): O=C1CCC(Nc2ccc(OC3CCN(C4CCC(COc5cc(F)c6c(=O)[nH]c(CSC7CCOCC7)nc6c5)CC4)CC3)cc2)C(=O)N1 (stereo not shown) [Example 87, 3-((4-((1-(4-(((5-fluoro-4-oxo-2-(((tetrahydro-2H-pyran-4-yl)thio)methyl)-3,4-dihydroquinazolin-7-yl)oxy)methyl)cyclohexyl)piperidin-4-yl)oxy)phenyl)amino)piperidine-2,6-dione]

DC50: < 100 nM
Structure (SMILES): O=C1CCC(Nc2ccc(N3CCN(CCN4CCC(COc5cc(F)c6c(=O)[nH]c(COC7CCOCC7)nc6c5)CC4)CC3)cc2)C(=O)N1 (stereo not shown) [Example 68, 3-((4-(4-(2-(4-(((5-fluoro-4-oxo-2-(((tetrahydro-2H-pyran-4-yl)oxy)methyl)-3,4-dihydroquinazolin-7-yl)oxy)methyl)piperidin-1-yl)ethyl)piperazin-1-yl)phenyl)amino)piperidine-2,6-dione]

DC50: < 100 nM
Structure (SMILES): CN(c1ccc(NC2CCC(=O)NC2=O)cc1)C1CCN(CCN2CCC(COc3cc(F)c4c(=O)[nH]c(CSC5CCOCC5)nc4c3)CC2)CC1 (stereo not shown) [Example 123]

The remaining lines, values behind:

Structure (SMILES): O=C1CCC(Nc2ccc(OCCN3CCC(COc4cc(F)c5c(=O)[nH]c(CSC6CCOCC6)nc5c4)CC3)cc2)C(=O)N1 (stereo not shown) [Example 58, 3-((4-(2-(4-(((5-fluoro-4-oxo-2-(((tetrahydro-2H-pyran-4-yl)thio)methyl)-3,4-dihydroquinazolin-7-yl)oxy)methyl)piperidin-1-yl)ethoxy)phenyl)amino)piperidine-2,6-dione]
DC50: < 100 nM

Structure (SMILES): O=C1CCC(N2C(=O)c3cccc(N4CCN(CC5CCN(C(=O)CN6CCC(COc7cc(F)c8c(=O)[nH]c(CSC9CCOCC9)nc8c7)CC6)CC5)CC4)c3C2=O)C(=O)N1 (stereo not shown) [Example 21, 2-(2,6-dioxopiperidin-3-yl)-4-(4-((1-(2-(4-(((5-fluoro-4-oxo-2-(((tetrahydro-2H-pyran-4-yl)thio)methyl)-3,4-dihydroquinazolin-7-yl)oxy)methyl)piperidin-1-yl)acetyl)piperidin-4-yl)methyl)piperazin-1-yl)isoindoline-1,3-dione]
DC50: < 100 nM

Structure (SMILES): O=C1CCC(Nc2ccc(N3C4CC3CN(CCN3CCC(COc5cc(F)c6c(=O)[nH]c(CSC7CCOCC7)nc6c5)CC3)C4)cc2)C(=O)N1 (stereo not shown) [Example 71, 3-((4-(3-(2-(4-(((5-fluoro-4-oxo-2-(((tetrahydro-2H-pyran-4-yl)thio)methyl)-3,4-dihydroquinazolin-7-yl)oxy)methyl)piperidin-1-yl)ethyl)-3,6-diazabicyclo[3.1.1]heptan-6-yl)phenyl)amino)piperidine-2,6-dione]
DC50: < 100 nM

Structure (SMILES): O=C(CN1CCC(COc2cc(F)c3c(=O)[nH]c(CSC4CCOCC4)nc3c2)CC1)NCCCCCCNc1cccc2c1C(=O)N(C1CCC(=O)NC1=O)C2=O (stereo not shown) [Example 1, N-(6-((2-(2,6-dioxopiperidin-3-yl)-1,3-dioxoisoindolin-4-yl)amino)hexyl)-2-(4-(((5-fluoro-4-oxo-2-(((tetrahydro-2H-pyran-4-yl)thio)methyl)-3,4-dihydroquinazolin-7-yl)oxy)methyl)piperidin-1-yl)acetamide]
DC50: < 100 nM

Structure (SMILES): O=C1CCC(Nc2ccc(C3CCN(CCN4CCC(COc5cc(F)c6c(=O)[nH]c(CSC7CCOCC7)nc6c5)CC4)CC3)cc2)C(=O)N1 (stereo not shown) [Example 49, 3-((4-(1-(2-(4-(((5-fluoro-4-oxo-2-(((tetrahydro-2H-pyran-4-yl)thio)methyl)-3,4-dihydroquinazolin-7-yl)oxy)methyl)piperidin-1-yl)ethyl)piperidin-4-yl)phenyl)amino)piperidine-2,6-dione]
DC50: < 100 nM

Structure (SMILES): O=C1CCC(Nc2ccc(OC3CC(N4CCC(COc5cc(F)c6c(=O)[nH]c(CSC7CCOCC7)nc6c5)CC4)C3)cc2)C(=O)N1 (stereo not shown) [Example 81, 3-((4-(3-(4-(((5-fluoro-4-oxo-2-(((tetrahydro-2H-pyran-4-yl)thio)methyl)-3,4-dihydroquinazolin-7-yl)oxy)methyl)piperidin-1-yl)cyclobutoxy)phenyl)amino)piperidine-2,6-dione]
DC50: < 100 nM

Structure (SMILES): O=C1CCC(N2C(=O)c3ccc(C#CCN4CCC(COc5cc(F)c6c(=O)[nH]c(CSC7CCOCC7)nc6c5)CC4)cc3C2=O)C(=O)N1 (stereo not shown) [Example 27, 2-(2,6-dioxopiperidin-3-yl)-5-(3-(4-(((5-fluoro-4-oxo-2-(((tetrahydro-2H-pyran-4-yl)thio)methyl)-3,4-dihydroquinazolin-7-yl)oxy)methyl)piperidin-1-yl)prop-1-yn-1-yl)isoindoline-1,3-dione]
DC50: < 100 nM

Structure (SMILES): O=C1CCC(N2C(=O)c3cccc(NCCCOCCC(=O)N4CCC(COc5cc(F)c6c(=O)[nH]c(CSC7CCOCC7)nc6c5)CC4)c3C2=O)C(=O)N1 (stereo not shown) [Example 10, 2-(2,6-dioxopiperidin-3-yl)-4-((3-(3-(4-(((5-fluoro-4-oxo-2-(((tetrahydro-2H-pyran-4-yl)thio)methyl)-3,4-dihydroquinazolin-7-yl)oxy)methyl)piperidin-1-yl)-3-oxopropoxy)propyl)amino)isoindoline-1,3-dione]
DC50: < 100 nM
